Where two headings read alike, the source gives them in different places.

Experimental findings from patent publication US20020028809A1 (SUNTORY LIMITED, priority 1999, published 2002) are described below.

Test [1] addresses T1, α4β2 subtype of nicotinic acetylcholine receptors (Rattus norvegicus, UniProt P09483+P12390).
T1 construct: examined using rat brain membrane obtained from whole homogenized brain; from tissue; host or cells: whole brain of Fischer-344 male rats, membrane pellet
The experiment in a line: Binding assays at α4β2 subtype of nicotinic acetylcholine receptors ([3H]-cytisine, rat brain membrane). The source says:
(§1) Methods for evaluating binding capabilities of the compounds at nicotinic acetylcholine receptors are different by subtypes of receptors. Binding capabilities of the compounds at α4β2 nicotinic acetylcholine receptors are examined using rat brain membrane obtained from whole homogenized brain, and determining the inhibiting rate of the compounds against [^3H]-cytisine binding to said brain membrane. Furthermore, the binding capabilities of the compounds at α1β1γδ nicotinic acetylcholine receptors are examined using homogenized rat muscle, and determining the inhibiting rate of the compounds against [^3H]-α-bungarotoxin binding to said muscle homogenate.
Binding assays at α4β2 Subtype of Nicotinic Acetylcholine Receptors
(1) Preparation of Rat Brain Membrane Containing α4β2 Subtype of Nicotinic Acetylcholine Receptors
Rats were housed in the breeding cage controlled of the room temperature at 23±1° C., and the humidity of 55±5% for 1 to 4 weeks. Rats (3 to 4 rats per a cage) were housed with lights on for 12 hours daily (from 7:00 to 19:00), and allowed free access to food and water.
Preparation of rat brain membrane containing α4β2 subtype of nicotinic acetylcholine receptors was performed as follow. That is, rat brains were isolated just after sacrificed by decapitation, washed with ice-cooled saline solution and then frozen at −80° C. with liquid nitrogen and stored till using. After thawing the frozen brain, the brain was homogenized in 10 volumes of ice-cooled buffer solution (50 mM of Tris-HCl, 120 mM of NaCl, 5 mM of KCl, 1 mM of MgCl2, 2mM of CaCl2; pH 7.4; 4° C.) using homogenizer (HG30, Hitachi Kohki Ltd.) for 30 seconds, and the homogenate were centrifuged under 1,000×G for 10 minutes at 4° C. The resulting supernatant was separated and the pellet was homogenized again with half volume of aforementioned prior buffer solution and centrifuged under the same conditions. Combined supernatant was further centrifuged under 40,000×G for 20 minutes at 4° C. The pellet was suspended in buffer solution and used for binding assays at receptors.
(2) Experiments of α4β2 Subtype of Nicotinic Acetylcholine Receptors Binding
Suspensions of membrane pellets containing 400-600 μg of protein were added to test tubes containing test compounds and [^3H]-cytisine (2 nM) in a final volume of 200 μl and incubated for 75 minutes in ice-cooled bath. The samples were isolated by vacuum filtration onto Whatman GF/B filters, which were prerinsed with 0.5% polyethylenimine just prior to sample filtration, using Brandel multi manifold cell harvester. The filters were rapidly washed with buffer solution (3×1 ml). The filters were counted in 3 ml of clearsol I (Nacalai Tesque Inc.).
Analyses of the experimental results were conducted using the Accufit Competition Program (Beckman Ltd.).

Test [2] deals with T2, α1β1γδ subtype of nicotinic acetylcholine receptors (Rattus norvegicus, UniProt P18916+P25108+P25109+P25110).
T2 construct: Native receptor, no construct: "Triton X100 (2% w/v) was added
T2 sequence (P25108 21-457): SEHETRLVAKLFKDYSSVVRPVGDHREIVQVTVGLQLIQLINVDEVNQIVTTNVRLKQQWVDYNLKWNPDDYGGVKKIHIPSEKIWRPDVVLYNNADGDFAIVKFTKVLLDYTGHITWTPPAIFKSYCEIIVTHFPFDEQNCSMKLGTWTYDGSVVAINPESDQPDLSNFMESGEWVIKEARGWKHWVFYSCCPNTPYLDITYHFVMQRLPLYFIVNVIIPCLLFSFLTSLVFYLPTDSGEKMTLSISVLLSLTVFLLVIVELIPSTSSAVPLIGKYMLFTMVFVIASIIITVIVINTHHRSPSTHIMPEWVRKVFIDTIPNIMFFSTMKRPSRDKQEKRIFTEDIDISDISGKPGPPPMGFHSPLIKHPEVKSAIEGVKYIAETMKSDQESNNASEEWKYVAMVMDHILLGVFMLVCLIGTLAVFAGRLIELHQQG
T2 sequence (P25110 22-517): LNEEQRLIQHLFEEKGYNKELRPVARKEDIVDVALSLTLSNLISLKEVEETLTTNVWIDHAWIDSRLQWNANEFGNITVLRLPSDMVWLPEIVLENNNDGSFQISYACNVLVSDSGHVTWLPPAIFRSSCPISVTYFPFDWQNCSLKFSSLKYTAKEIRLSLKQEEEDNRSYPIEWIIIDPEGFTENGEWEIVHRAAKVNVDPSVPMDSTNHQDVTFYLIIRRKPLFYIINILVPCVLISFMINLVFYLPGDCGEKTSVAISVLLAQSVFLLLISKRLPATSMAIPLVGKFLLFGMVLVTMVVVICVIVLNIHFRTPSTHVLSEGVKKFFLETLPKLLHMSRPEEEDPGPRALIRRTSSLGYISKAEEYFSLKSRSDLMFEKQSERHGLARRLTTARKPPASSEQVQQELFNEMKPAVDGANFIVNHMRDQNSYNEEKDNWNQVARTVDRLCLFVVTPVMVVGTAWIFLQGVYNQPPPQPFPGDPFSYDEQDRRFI
T2 sequence (P25109 24-501): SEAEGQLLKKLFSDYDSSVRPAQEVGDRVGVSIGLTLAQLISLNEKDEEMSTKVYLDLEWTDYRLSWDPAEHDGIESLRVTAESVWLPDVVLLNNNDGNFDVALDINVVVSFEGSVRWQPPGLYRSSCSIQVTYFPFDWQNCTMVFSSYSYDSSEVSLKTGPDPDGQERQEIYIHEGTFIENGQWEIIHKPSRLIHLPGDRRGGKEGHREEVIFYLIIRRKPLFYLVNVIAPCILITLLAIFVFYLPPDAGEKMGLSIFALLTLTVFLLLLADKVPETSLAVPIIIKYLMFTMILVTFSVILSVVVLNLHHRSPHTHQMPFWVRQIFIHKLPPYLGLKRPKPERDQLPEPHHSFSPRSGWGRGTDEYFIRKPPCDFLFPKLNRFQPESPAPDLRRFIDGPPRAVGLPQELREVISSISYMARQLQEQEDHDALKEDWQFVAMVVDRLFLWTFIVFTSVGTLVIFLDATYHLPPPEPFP
The experiment in a line: Binding assays at α1β1γδ subtype of nicotinic acetylcholine receptors ([3H]-α-bungarotoxin, rat muscle extract). As to conditions: for remaining activity at 100 µM / remaining activity at 1000 µM: read-out: control % of [3H]-α-Bgt binding.
Source text: as §1
Binding Assays at α1β1γδ Subtype of Nicotinic Acetylcholine Receptors
Affinity of the compounds of the present invention to α1βγδ subtype of nicotinic acetylcholine receptors was measured by the following method, which was modified method described by Garcha H. S., Thomas P., Spivak C.
(1) Preparation of Rat Skeletal Muscles Containing α1β1γδ Subtype of Nicotinic Acetylcholine Receptors
The substantially same animals described in the Biological Experiment 1 were used.
Isolation of α1β1γδ subtype of nicotinic acetylcholine receptors was performed as follow. That is, rat posterior skeletal muscles were isolated just after sacrificed by decapitation, washed with ice-cooled saline solution and then frozen at −80° C. with liquid nitrogen and stored till using. After thawing the frozen muscles, tissue was homogenized (40% w/v) with buffer solution [2.5 mM of sodium phosphate buffer (pH:7.2), 90 mM of NaCl, 2 mM of KCl, 1 mM of EDTA, 2 mM of benzamidine, 0.1 mM of benzethonium chloride, […], 0.01% of sodium azide] in Waring blender (Waring blender 34BL97; WARING PRODUCTS DIVISION DYNAMICS CORPORATION OF AMERICA) for 60 seconds. The homogenate were centrifuged under 20,000×G for 60 minutes at 4° C. The supernatant was separated and the resulting pellet was added to the same buffer (1.5 ml/g wet weight), and homogenized under the same conditions. Triton X100 (2% w/v) was added and the mixture was stirred for 3 hours at 4° C. The centrifugation at 100,000×G for 60 minutes at 4° C. yielded the rat muscle extract as supernatant. This was stored at 4° C. for up to 4 weeks, and used for binding assays at receptors.
(2) Experiments of α1β1γδSubtype of Nicotinic Acetylcholine Receptors Binding
Receptors binding experiments were performed as follow. That is, the extract of rat muscle containing 600-900 μg of protein was added to test tubes containing test compounds and incubated for 15 minutes at 37° C. Then, to this mixture was added 1 nM of [^3H]-α-bungarotoxin (α-Bgt) and further incubated for 2 hours. The samples were isolated by vacuum filtration onto Whatman GF/B filters, which were prerinsed with 0.5% polyethylenimine just prior to sample filtration, using Brandel multi manifold cell harvester. The filters were rapidly rinsed with washing solution (10 mM of KH2PO4, 150 mM of NaCl, pH 7.2, room temperature) (5×1 ml). The filters were counted in 3 ml of clearsol I (Nacalai Tesque Inc.). Determination of nonspecific binding was incubated in the presence of 1 μM α-Bgt.
In the receptor binding experiments, said buffer solution was added for adjusting the final concentration of BSA to be 0.05%.
Analyses of the experimental results were conducted by the same way as described in the Biological Experiment 1.

Setting [3] is: at 1 μM of test compound, rat brain membrane.
Where [4] appears, read: at 10 μM of test compound, rat brain membrane.

T1 sequence (P09483 31-630): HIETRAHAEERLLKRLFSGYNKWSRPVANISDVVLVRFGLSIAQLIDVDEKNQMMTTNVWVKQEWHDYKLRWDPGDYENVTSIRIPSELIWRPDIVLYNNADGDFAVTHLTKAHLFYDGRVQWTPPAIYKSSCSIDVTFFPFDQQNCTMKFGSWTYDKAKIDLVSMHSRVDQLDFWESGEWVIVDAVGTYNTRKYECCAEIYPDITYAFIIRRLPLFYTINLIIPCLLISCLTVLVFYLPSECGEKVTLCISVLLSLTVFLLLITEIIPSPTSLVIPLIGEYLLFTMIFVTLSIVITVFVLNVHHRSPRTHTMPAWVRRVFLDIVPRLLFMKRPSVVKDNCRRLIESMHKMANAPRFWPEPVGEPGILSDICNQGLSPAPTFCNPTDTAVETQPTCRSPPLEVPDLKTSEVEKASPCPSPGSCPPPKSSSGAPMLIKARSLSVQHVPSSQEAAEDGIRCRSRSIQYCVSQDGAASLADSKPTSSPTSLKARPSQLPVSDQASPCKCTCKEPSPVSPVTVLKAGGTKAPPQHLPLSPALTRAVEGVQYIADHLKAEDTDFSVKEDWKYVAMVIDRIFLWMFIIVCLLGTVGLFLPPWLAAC
T1 sequence (P12390 25-500): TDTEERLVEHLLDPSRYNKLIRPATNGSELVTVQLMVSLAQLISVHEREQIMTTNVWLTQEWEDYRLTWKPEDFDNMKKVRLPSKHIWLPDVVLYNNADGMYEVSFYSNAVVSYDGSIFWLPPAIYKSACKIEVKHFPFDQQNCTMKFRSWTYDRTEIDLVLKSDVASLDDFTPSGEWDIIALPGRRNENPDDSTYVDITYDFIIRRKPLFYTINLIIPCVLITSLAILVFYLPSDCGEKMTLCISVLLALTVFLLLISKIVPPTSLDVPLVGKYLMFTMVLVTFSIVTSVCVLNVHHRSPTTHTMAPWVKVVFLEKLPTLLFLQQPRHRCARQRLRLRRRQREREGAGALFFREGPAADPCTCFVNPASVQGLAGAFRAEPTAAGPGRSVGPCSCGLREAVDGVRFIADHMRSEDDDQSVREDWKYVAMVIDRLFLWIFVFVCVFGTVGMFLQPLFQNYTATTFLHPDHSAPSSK

For `Cc1csc(=N)n1Cc1ccc(Cl)nc1` [Compound 2, 3-(6-chloro-3-pyridyl)methyl-2-imino-4-methyl-2,3-dihydrothiazole], the inhibitory constant (Ki) is 3.5 nM in test [1] and 12800 nM in test [2].

`Cc1cc(Cn2c(C)csc2=N)on1` [Compound 36, 2-imino-4-methyl-3-(3-methyl-5-isoxazolyl)methyl-2,3-dihydrothiazole] gave a Ki in test [1] of 263 nM. Also, in test [2], the remaining activity at 100 µM came out at 10% and the remaining activity at 1000 µM worked out at 2%.

Take `N=c1sccn1Cc1c[nH]c2ncccc12` [Compound 66]: the Ki in test [1] came out at 16.1 nM; in test [2], 184000 nM.

`N=c1ccc(Cl)cn1Cc1ccc(Cl)nc1` [Compound 22, 5-chloro-1-(6-chloro-3-pyridyl)methyl-2-imino-1,2-dihydropyridine] returned a Ki in test [1] of 33.7 nM. Moreover, in test [2], the remaining activity at 100 µM is 75% and the remaining activity at 1000 µM was determined as 28%.

In the case of `N=c1ccccn1Cc1cccnc1` [Compound 26, 2-imino-1-(3-pyridyl)methyl-1,2-dihydropyridine], the figures for the Ki in test [1] and in test [2] were 28.2 nM and 41600 nM, respectively.

In the case of `N=C1SCC(c2ccccc2)N1Cc1ccc(Cl)nc1` (centres unmarked) [Compound 43, 3-(6-chloro-3-pyridyl)methyl-2-imino-4-phenylthiazolidine], the Ki in test [1] was 37.1 nM; in test [2], 19900 nM.

In the case of `N=c1sccn1Cc1cccc(C(F)(F)F)c1` [Compound 64, 2-imino-3-(3-trifluoromethylbenzyl)-2,3-dihydrothiazole], the “control % of [3H]-cytisine binding” value in test [1] (setting [3]) is “(60%,”. Moreover, the “control % of [3H]-cytisine binding” value in test [1] (setting [4]) came out at 15%). For the same molecule, in test [2], the remaining activity at 100 µM amounted to 77% and the remaining activity at 1000 µM worked out at 23%.

As for `N=C1SCCN1Cc1cccnn1` [Compound 49, 2-imino-3-(3-pyridazinyl)methylthiazolidine], the “control % of [3H]-cytisine binding” value in test [1] (setting [3]) is “(62%,”. The “control % of [3H]-cytisine binding” value in test [1] (setting [4]) came to 16%). For the same molecule, in test [2], the remaining activity at 100 µM was found to be 18% and the remaining activity at 1000 µM came to 14%.

Turning to `CN1CCCC1c1cccnc1` (single isomer, unassigned; (-)) [Nicotine, (−)-nicotine, reference compound], the Ki in test [2] amounted to 182000 nM.

On to `Cc1ccc(Cn2ccsc2=N)cc1` [Compound 63, 2-imino-3-(4-methylbenzyl)-2,3-dihydrothiazole], for which the Ki is 160 nM in test [1] (rat brain membrane, [3H]-cytisine (2 nM), read-out: Affinities for receptors Ki α4β2) and 364000 nM in test [2].

In the case of `N=c1ccc([N+](=O)[O-])cn1Cc1ccc(Cl)nc1` [Compound 47, 1-(6-chloro-3-pyridyl)methyl-2-imino-5-nitro-1,2-dihydropyridine], affinity in test [1] was put at a Ki of 227 nM. For the same molecule, in test [2], the remaining activity at 100 µM is 93% and the remaining activity at 1000 µM worked out at 73%.

For `N=c1sc(-c2ccccc2)cn1Cc1ccc(Cl)nc1` [Compound 40, 3-(6-chloro-3-pyridyl)methyl-2-imino-5-phenyl-2,3-dihydrothiazole], the Ki in test [1] came to 355 nM. In test [2], the remaining activity at 100 µM stood at 71% and the remaining activity at 1000 µM amounted to 35%.

On to `N=c1sccn1Cc1ccc(Cl)c(Cl)c1` [Compound 60, 3-(3,4-dichlorobenzyl)-2-imino-2,3-dihydrothiazole], for which the Ki in test [1] was determined as 31.9 nM; in test [2], 61300 nM.

Molecule `N=c1scc(-c2ccccc2)n1Cc1ccc(Cl)nc1` [Compound 41, 3-(6-chloro-3-pyridyl)methyl-2-imino-4-phenyl-2,3-dihydrothiazole] returned a Ki in test [1] of 32 nM. Further, in test [2], the remaining activity at 100 µM was 79% and the remaining activity at 1000 µM amounted to 30%.

`Cc1cn(Cc2ccc(Cl)nc2)c(=N)s1` [Compound 3, 3-(6-chloro-3-pyridyl)methyl-2-imino-5-methyl-2,3-dihydrothiazole]: the Ki in test [1] was determined as 5.8 nM. Moreover, in test [2], the remaining activity at 100 µM amounted to 69% and the remaining activity at 1000 µM came to 28%.

With `CC1CSC(=N)N1Cc1ccc(Cl)nc1` (centres unmarked) [Compound 27, 3-(6-chloro-3-pyridyl)methyl-2-imino-4-methylthiazolidine], the results for the Ki in test [1] and in test [2] were 53.1 nM and 16300 nM, respectively.

In test [1], `Cc1cn(Cc2ccc(Cl)nc2)c(N)n1` [Compound 53, 2-amino-1-(6-chloro-3-pyridyl)methyl-4-methylimidazole] showed a Ki of 226 nM. In addition, in test [2], the remaining activity at 100 µM was 98% and the remaining activity at 1000 µM is 56%.

As to `Cc1csc(=N)n1Cc1cnc(Cl)s1` [Compound 37, 3-(2-chloro-5-thiazolyl)methyl-2-imino-4-methyl-2,3-dihydrothiazole], the Ki was 16.4 nM in test [1] and 22900 nM in test [2].

`Cc1csc(=N)n1Cc1cncc(Br)c1` [Compound 30, 3-(5-bromo-3-pyridyl)methyl-2-imino-4-methyl-2,3-dihydrothiazole]: the inhibition constant Ki in test [1] is 26.7 nM; in test [2], 22500 nM.

`N=c1scc(-c2ccc(Cl)cc2)n1Cc1ccc(Cl)nc1` [Compound 42, 4-(4-chlorophenyl)-3-(6-chloro-3-pyridyl)methyl-2-imino-2,3-dihydrothiazole] displayed a Ki in test [1] of 290 nM. In addition, in test [2], the remaining activity at 100 µM is 75% and the remaining activity at 1000 µM is 35%.

On to `Cc1csc(=N)n1Cc1cnc(Cl)c(Cl)c1` [Compound 38, 3-(5,6-dichloro-3-pyridyl)methyl-2-imino-4-methyl-2,3-dihydrothiazole], for which the Ki in test [1] amounted to 10.6 nM; in test [2], 65200 nM.

For the molecule `Nc1nccn1Cc1cnc(Cl)c(Cl)c1` [Compound 54, 2-amino-1-(5,6-dichloro-3-pyridyl)methylimidazole], in test [1], the Ki was 9.72 nM. Moreover, in test [2], the remaining activity at 100 µM stood at 113% and the remaining activity at 1000 µM was determined as 52%.

On to `Cc1sc(=N)n(Cc2ccc(Cl)nc2)c1C` [Compound 20, 3-(6-chloro-3-pyridyl)methyl-2-imino-4,5-dimethyl-2,3-dihydrothiazole], for which the inhibition constant Ki in test [1] is 7.56 nM. Besides, in test [2], the remaining activity at 100 µM came to 96% and the remaining activity at 1000 µM was determined as 45%.

In turn, `Cc1ccn(Cc2ccc(Cl)nc2)c(=N)c1` [Compound 25, 1-(6-chloro-3-pyridyl)methyl-2-imino-4-methyl-1,2-dihydropyridine] gave a Ki in test [1] of 171 nM. In test [2], the remaining activity at 100 µM was found to be 90% and the remaining activity at 1000 µM stood at 58%.
